The record followed here is US20150125889A1, “IN VITRO DETECTION OF MICROORGANISMS WITH AZOREDUCTASE ACTIVITY” (BIOMÉRIEUX, priority 2012, published 2015).

What all share (type): cell-based
One assay relates to Staphylococcus aureus. As to the kind of experiment: Reduction of azo substrates over 24 hours at 35° C., microtitration plate (Example 1). Set-up: key to RED (substrate reduced or not): RED indicates whether the substrate is reduced (Y) or not (N); RED indicates whether the substrate is reduced (Y) or not (N); key to Co (growth, absorbance at 660 nm) / Decol (substrate decolourized, decrease in absorbance) / Fluo (fluorescence multiplied by 2 relative to substrate-free control): The symbol “+” means good growth/decolourization/significant increase in fluorescence; The symbol “+/−” means difficult growth; The symbol “−” means that there is no growth/decolourization/significant increase in fluorescence. The conditions noted are these: S. aureus, substrate 35 mg/l. An outline of the steps:
(§1)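 Each species is represented by a single strain inoculated at 0.5 McFarland into Trypcase soya broth with substrate at 35 mg/l. Plates are read continuously at 35° C. over 24 hours. A substrate counts as reduced when absorbance falls or fluorescence doubles relative to a substrate-free control.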

The subject of the next assay is Escherichia coli. The assay is described as above. Set-up: key to RED (substrate reduced or not): RED indicates whether the substrate is reduced (Y) or not (N); RED indicates whether the substrate is reduced (Y) or not (N); key to Co (growth, absorbance at 660 nm) / Decol (substrate decolourized, decrease in absorbance) / Fluo (fluorescence multiplied by 2 relative to substrate-free control): The symbol “+” means good growth/decolourization/significant increase in fluorescence; The symbol “+/−” means difficult growth; The symbol “−” means that there is no growth/decolourization/significant increase in fluorescence. Conditions: E. coli, substrate 35 mg/l. An outline of the steps:
as §1

For a further assay, the system named is Candida albicans. The assay is described as above. Set-up: key to RED (substrate reduced or not): RED indicates whether the substrate is reduced (Y) or not (N); RED indicates whether the substrate is reduced (Y) or not (N); key to Co (growth, absorbance at 660 nm) / Decol (substrate decolourized, decrease in absorbance) / Fluo (fluorescence multiplied by 2 relative to substrate-free control): The symbol “+” means good growth/decolourization/significant increase in fluorescence; The symbol “+/−” means difficult growth; The symbol “−” means that there is no growth/decolourization/significant increase in fluorescence. Conditions: substrate 35 mg/l. The procedure, abridged:
as §1

In assay [1] the test system is 10 strains representing 10 species of microorganisms. As to the kind of experiment: Reduction of azo substrates, whole panel of Example 1. Conditions: substrate 35 mg/l, 35° C., 24 hours. On the procedure:
Reduction of the “azo” function of the substrates listed in Table I by the species listed in Table II, each species being represented by a strain, is tested in a microtitration plate.
The reaction medium consists of: • Trypcase soya broth • Substrate 35 mg/l • 0.5 MacFarland inoculum
The reduction of the substrate and the growth of the microorganisms are monitored using an Infinite® M200 Tecan microplate reader at 35° C. over 24 hours.
The growth is monitored by the absorbance at 660 nm and the reduction of the substrates by absorbance and fluorescence at the specific wavelengths indicated in Table III.
The substrate is considered as reduced by the microorganisms when the substrate is decolourized (monitored by the decrease in absorbance) (Decol) and/or when the fluorescence of the substrate is multiplied by 2 relative to the base fluorescence of a substrate-free control (Fluo). The growth is indicated by Co. The symbol “+” means good growth/decolourization/significant increase in fluorescence. The symbol “+/−” means difficult growth. The symbol “−” means that there is no growth/decolourization/significant increase in fluorescence. RED indicates whether the substrate is reduced (Y) or not (N).

For assay [2], the system named is 45 strains representing 25 species of microorganisms. As to the kind of experiment: Reduction of 3 azo substrates, whole panel of Example 2. The conditions noted are these: substrate 35 mg/l, 35° C., 24 hours. On the procedure:
(§2) The reduction of the “azo” function of the substrates listed in Table V by the 25 species listed in Table VI, each being represented by one or two strains, is tested in a microtitration plate. The reaction medium consists of: • Trypcase soya broth • Substrate 35 mg/l • 0.5 MacFarland inoculum The reduction of the substrate and the growth of the microorganisms are monitored using an Infinite® M200 Tecan microplate reader at 35° C. over 24 hours. The growth is monitored by the absorbance at 660 nm, and the reduction of the substrates by absorbance and fluorescence at the wavelengths indicated in Table III above. The substrate is considered as reduced by the microorganisms when the fluorescence is multiplied by 2 relative to the base fluorescence of the reaction medium.

For another assay, the system named is Streptococcus pyogenes. As to the kind of experiment: Reduction of 3 azo substrates over 24 hours at 35° C. (Example 2). Set-up: key: The strains that reduce the substrate are marked with a “+”; the strains that do not reduce the substrate are marked with a “−”. The conditions noted are these: substrate 35 mg/l. As for the experimental part: as §2
In a further assay the test system is Citrobacter koseri. Described as above. The conditions noted are these: substrate 35 mg/l. Set-up: key: The strains that reduce the substrate are marked with a “+”; the strains that do not reduce the substrate are marked with a “−”. As for the experimental part:
as §2

The subject of another assay is Saccharomyces cerevisiae. The assay is described as above. Set-up: key: The strains that reduce the substrate are marked with a “+”; the strains that do not reduce the substrate are marked with a “−”. The conditions noted are these: substrate 35 mg/l. On the procedure:
as §2

For a further assay, the system named is Staphylococcus hominis. Described as above. Conditions: substrate 35 mg/l. Set-up: key: The strains that reduce the substrate are marked with a “+”; the strains that do not reduce the substrate are marked with a “−”. On the procedure: as §2
For assay [3], the system named is Staphylococcus haemolyticus. Described as above. Set-up: key: The strains that reduce the substrate are marked with a “+”; the strains that do not reduce the substrate are marked with a “−”. Conditions: substrate 35 mg/l. On the procedure:
as §2

Regarding `CN(C)c1ccc(N=Nc2ccc(S(=O)(=O)[O-])cc2)cc1.[Na+]` [Methyl orange], in the assay on Staphylococcus aureus, the “Co (growth, absorbance at 660 nm)” value is recorded as “+”; the “Decol (substrate decolourized, decrease in absorbance)” value is “−”; the “Fluo (fluorescence multiplied by 2 relative to substrate-free control)” value is reported as “−”; the “RED (substrate reduced or not)” value is listed as “N”. In the assay on Escherichia coli, the “Co (growth, absorbance at 660 nm)” value was “+”; the “Decol (substrate decolourized, decrease in absorbance)” value is “−”; the “Fluo (fluorescence multiplied by 2 relative to substrate-free control)” value is “−”; the “RED (substrate reduced or not)” value is “N”. For the same compound, in the assay with Candida albicans, the “Co (growth, absorbance at 660 nm)” value is on record as “+”; the “Decol (substrate decolourized, decrease in absorbance)” value was “−”; the “Fluo (fluorescence multiplied by 2 relative to substrate-free control)” value was “−”; the “RED (substrate reduced or not)” value is on record as “N”. The “reduction by the microorganisms tested (Table IV)” value in assay [1] is “reduced only by E. faecalis”.
Turning to `CN(C)c1ccc(/N=N/c2ccccc2C(=O)O)cc1` [Methyl red], in the assay on Staphylococcus aureus, the “Co (growth, absorbance at 660 nm)” value is “+”; the “Decol (substrate decolourized, decrease in absorbance)” value is reported as “+”; the “Fluo (fluorescence multiplied by 2 relative to substrate-free control)” value was “+”; the “RED (substrate reduced or not)” value is given as “Y”. For the same compound, in the assay on Escherichia coli, the “Co (growth, absorbance at 660 nm)” value is listed as “+”; the “Decol (substrate decolourized, decrease in absorbance)” value is recorded as “+”; the “Fluo (fluorescence multiplied by 2 relative to substrate-free control)” value is “+”; the “RED (substrate reduced or not)” value was “Y”. Further, in the assay on Candida albicans, the “Co (growth, absorbance at 660 nm)” value is given as “+”; the “Decol (substrate decolourized, decrease in absorbance)” value is reported as “+”; the “Fluo (fluorescence multiplied by 2 relative to substrate-free control)” value is recorded as “+”; the “RED (substrate reduced or not)” value is reported as “Y”. Also, the “reduction by the microorganisms tested (Table IV)” value in [1] is on record as “can be reduced by all the microorganisms tested”.
`O=S(=O)([O-])c1ccc(N=Nc2c(O)ccc3ccccc23)cc1.[Na+]` [Orange II]: the “reduction by the species tested (Table VII)” value in [2] is listed as “reduced mainly by E. faecalis”. Besides, the “Co (growth, absorbance at 660 nm)” value with Staphylococcus aureus, in the assay on Escherichia coli and with Candida albicans was “+” in each case. The “Decol (substrate decolourized, decrease in absorbance)” value in the assay on Staphylococcus aureus, in the assay with Escherichia coli and with Candida albicans was “−” each time. In addition, the “Fluo (fluorescence multiplied by 2 relative to substrate-free control)” value with Staphylococcus aureus, with Escherichia coli and with Candida albicans was “−” each time. In addition, the “RED (substrate reduced or not)” value in the assay with Staphylococcus aureus, in the assay on Escherichia coli and in the assay with Candida albicans was “N” in each case. Further, the “reduction of the substrate by the strain (fluorescence multiplied by 2)” value (with Streptococcus pyogenes; in the assay on Citrobacter koseri; in the assay with Saccharomyces cerevisiae; in the assay on Staphylococcus hominis; in assay [3]) was “−” each time.
For the compound `O=C([O-])C1=NN(c2ccc(S(=O)(=O)[O-])cc2)C(=O)C1/N=N/c1ccc(S(=O)(=O)[O-])cc1.[Na+].[Na+].[Na+]` (centres unmarked) [Tartrazine], in [2], the “reduction by the species tested (Table VII)” value was “reduced mainly by E. faecalis”. Also, the “Co (growth, absorbance at 660 nm)” value in the assay on Staphylococcus aureus, in the assay with Escherichia coli and with Candida albicans was “+” in each case. The “Decol (substrate decolourized, decrease in absorbance)” value in the assay with Staphylococcus aureus, with Escherichia coli and in the assay with Candida albicans was “−” throughout. Further, the “Fluo (fluorescence multiplied by 2 relative to substrate-free control)” value with Staphylococcus aureus, with Escherichia coli and with Candida albicans was “−” each time. Further, the “RED (substrate reduced or not)” value in the assay with Staphylococcus aureus, in the assay with Escherichia coli and in the assay with Candida albicans was “N” in each case. For the same compound, the “reduction of the substrate by the strain (fluorescence multiplied by 2)” value (in the assay on Streptococcus pyogenes; with Citrobacter koseri; with Saccharomyces cerevisiae; in the assay on Staphylococcus hominis; in assay [3]) was “−” in each case.
In the case of `O=C(O)c1cc(/N=N/c2ccc(-c3nc4ccccc4s3)cc2)ccc1O` [BF45, 2-Phenyl-benzothiazole-4′-azo-4″- hydroxybenzene-3″-carboxylic acid], in the assay on Staphylococcus aureus, the “Co (growth, absorbance at 660 nm)” value is “+”; the “Decol (substrate decolourized, decrease in absorbance)” value is on record as “+”; the “Fluo (fluorescence multiplied by 2 relative to substrate-free control)” value is on record as “+”; the “RED (substrate reduced or not)” value is “Y”. In addition, in the assay on Escherichia coli, the “Co (growth, absorbance at 660 nm)” value was “+”; the “Decol (substrate decolourized, decrease in absorbance)” value is “−”; the “Fluo (fluorescence multiplied by 2 relative to substrate-free control)” value is “+”; the “RED (substrate reduced or not)” value is recorded as “Y”. Moreover, in the assay with Candida albicans, the “Co (growth, absorbance at 660 nm)” value is “+”; the “Decol (substrate decolourized, decrease in absorbance)” value is given as “−”; the “Fluo (fluorescence multiplied by 2 relative to substrate-free control)” value was “−”; the “RED (substrate reduced or not)” value is reported as “N”.
